Laboratory results reported in ChEMBL document CHEMBL1201862, “PubChem BioAssay data set” (2004).
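Growth conditions: 96-well plates. Treatment: test compound, 48 hours, 5 concentrations. Analysis: linear interpolation between bracketing concentrations; unreached endpoints set to highest concentration. The concentration for 50% growth inhibition is given as GI50.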 Calls of active or inactive are those of the source. Cut-off read from the data, not from the text of the source: active = GI50 up to about 1.1 µM and inactive = higher.

Assays:
Assay in all cases: DTP human tumour cell line panel, 48 h
DU-145 = system: DU-145
T47D = system: T47D
Hs-578T = system: Hs-578T
HOP-92 = system: HOP-92
MDA-N = system: MDA-N
SF-268 = system: SF-268
SK-OV-3 = system: SK-OV-3
MDA-MB-435 = system: MDA-MB-435
EKVX = system: EKVX
HCT-15 = system: HCT-15
A498 = system: A498
HL-60 = system: HL-60
A549 = system: A549
TK-10 = system: TK-10
KM12 = system: KM12
U-251 = system: U-251
M14 = system: M14
NCI-H23 = system: NCI-H23
NCI-H522 = system: NCI-H522
SK-MEL-2 = system: SK-MEL-2
SW-620 = system: SW-620
BT-549 = system: BT-549
SK-MEL-5 = system: SK-MEL-5
UACC-257 = system: UACC-257
OVCAR-4 = system: OVCAR-4
IGROV-1 = system: IGROV-1
CCRF-CEM = system: CCRF-CEM
NCI/ADR-RES = system: NCI/ADR-RES
MOLT-4 = system: MOLT-4
NCI-H460 = system: NCI-H460
HT-29 = system: HT-29
SN12C = system: SN12C
HCT-116 = system: HCT-116
RPMI-8226 = system: RPMI-8226
CAKI-1 = system: CAKI-1
Malme-3M = system: Malme-3M
LOX IMVI = system: LOX IMVI
PC-3 = system: PC-3
HOP-62 = system: HOP-62
HCC 2998 = system: HCC 2998
MCF7 = system: MCF7
ACHN = system: ACHN
OVCAR-3 = system: OVCAR-3
K562 = system: K562
786-0 = system: 786-0
SNB-19 = system: SNB-19
OVCAR-5 = system: OVCAR-5
UO-31 = system: UO-31
SR = system: SR
SF-295 = system: SF-295
RXF 393 = system: RXF 393
MDA-MB-231 = system: MDA-MB-231
UACC-62 = system: UACC-62
SF-539 = system: SF-539
OVCAR-8 = system: OVCAR-8
SNB-75 = system: SNB-75
NCI-H226 = system: NCI-H226
COLO 205 = system: COLO 205
SK-MEL-28 = system: SK-MEL-28

Measured: GI50

CNc1ccc2c(c1)[C@@]1(C)c3ccccc3[C@@H](C2)N1C
19 µM: HCT-15
inactive: DU-145 39.5 µM | T47D 28.1 µM | Hs-578T 29.7 µM | HOP-92 27.1 µM | MDA-N 24.4 µM | SF-268 44.4 µM | SK-OV-3 43.8 µM | MDA-MB-435 19.1 µM | EKVX 32.7 µM | A498 26.4 µM | HL-60 14.7 µM | A549 30.2 µM | TK-10 28.8 µM | KM12 22.4 µM | U-251 20.4 µM | M14 21.6 µM | NCI-H23 22.6 µM | NCI-H522 15.7 µM | SK-MEL-2 21.6 µM | SW-620 33.7 µM | BT-549 17.6 µM | SK-MEL-5 17.7 µM | UACC-257 23.4 µM | OVCAR-4 30.7 µM | IGROV-1 48.9 µM | CCRF-CEM 20.4 µM | NCI/ADR-RES 27.4 µM | MOLT-4 17.5 µM | NCI-H460 18.4 µM | HT-29 18.8 µM | SN12C 17.4 µM | HCT-116 16.1 µM | RPMI-8226 15.7 µM | CAKI-1 36.5 µM | Malme-3M 28 µM | LOX IMVI 19.5 µM | PC-3 29.9 µM | HOP-62 42.1 µM | HCC 2998 20.1 µM | MCF7 29.7 µM | ACHN 30.6 µM | OVCAR-3 20.1 µM | K562 23.2 µM | 786-0 17.4 µM | SNB-19 37.8 µM | OVCAR-5 25.9 µM | UO-31 28.1 µM | SR 22.6 µM | SF-295 29.6 µM | RXF 393 20.3 µM | MDA-MB-231 23.2 µM | UACC-62 16.4 µM

CC1(c2nc3ccccc3[nH]2)CCC(C#N)C(C)(C)O1 (stereo not given)
> 100 µM: HCT-15
inactive: DU-145 > 100 µM | SF-539 > 100 µM | T47D > 100 µM | Hs-578T > 100 µM | HOP-92 > 100 µM | MDA-N > 100 µM | OVCAR-8 > 100 µM | SF-268 > 100 µM | SK-OV-3 > 100 µM | SNB-75 > 100 µM | MDA-MB-435 > 100 µM | EKVX > 100 µM | HL-60 > 100 µM | A549 > 100 µM | TK-10 > 100 µM | KM12 7.74 µM | U-251 > 100 µM | M14 > 100 µM | NCI-H23 > 100 µM | NCI-H522 > 100 µM | SK-MEL-2 > 100 µM | NCI-H226 > 100 µM | SW-620 > 100 µM | BT-549 > 100 µM | SK-MEL-5 > 100 µM | UACC-257 > 100 µM | OVCAR-4 > 100 µM | IGROV-1 > 100 µM | CCRF-CEM > 100 µM | COLO 205 > 100 µM | SK-MEL-28 > 100 µM | NCI/ADR-RES > 100 µM | MOLT-4 > 100 µM | HT-29 > 100 µM | SN12C > 100 µM | HCT-116 > 100 µM | RPMI-8226 > 100 µM | CAKI-1 > 100 µM | Malme-3M > 100 µM | LOX IMVI > 100 µM | PC-3 > 100 µM | HOP-62 > 100 µM | HCC 2998 > 100 µM | MCF7 > 100 µM | ACHN > 100 µM | OVCAR-3 > 100 µM | K562 > 100 µM | 786-0 > 100 µM | SNB-19 > 100 µM | OVCAR-5 > 100 µM | UO-31 36 µM | SR > 100 µM | SF-295 > 100 µM | RXF 393 > 100 µM | MDA-MB-231 > 100 µM | UACC-62 > 100 µM
